Data: ChEMBL document CHEMBL3137667, “[Drug-induced liver injury; fourteenth updated edition of the bibliographic database of liver injuries and related drugs]” (Gastroenterol Clin Biol, 2004)

Assays:
[1] = human
[2] = human; remark: listed apart in the source
[3] = human; remark: listed apart in the source
[4] = human; remark: listed apart in the source
[5] = human; remark: listed apart in the source
[6] = human; remark: listed apart in the source
[7] = human; remark: listed apart in the source
[8] = human, serum, 4383 h
[9] = Proposed mechanism(s) of liver damage. [column 'MEC' in source]; settings: human
[10] = Times to onset, minimal and maximal, observed in the indexed observations. [column 'DELAI' in source]; settings: human
[11] = human; remark: listed apart in the source
[12] = Comments (NB not yet translated). [column 'COMMENTAIRES' in source]; settings: human
[13] = human; remark: listed apart in the source
[14] = Presence of at least one case with successful reintroduction. [column 'REINT' in source]; settings: human
[15] = Highest frequency of acute liver toxicity observed during clinical trials, expressed as a percentage. [column '% AIGUE' in source]; settings: human
[16] = human, serum
[17] = human; remark: listed apart in the source
[18] = Highest frequency of moderate liver toxicity observed during clinical trials, expressed as a percentage. [column '% BIOL' in source]; settings: human
[19] = human, serum; remark: listed apart in the source
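Wherever Hepatotoxicity (association with vascular disease) is given: count of indexed literature references reporting vascular liver injury in humans, e.g. peliosis hepatitis, hepatic veno-occlusive disease or Budd-Chiari syndrome.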
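Wherever Hepatotoxicity (benign tumour) is given: value is a count of indexed literature references citing a benign tumour confirmed by histopathology.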
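Wherever Hepatotoxicity (choleostasis) is given: human cholestatic liver injury, shown by histopathology or by peak ALT or AST elevation over alkaline phosphatase ratio below 2, value counts indexed literature reports.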
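Wherever Hepatotoxicity (chronic liver disease) is given: chronic liver injury confirmed by histopathology or persistently raised serum aminotransferase activity beyond 6 months, value given as the count of indexed literature references.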
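Wherever Hepatotoxicity (cirrhosis) is given: value is a count of indexed literature references reporting cirrhosis confirmed by histopathology.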
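Wherever Hepatotoxicity (cytolytic) is given: human cytolytic liver injury, shown by histopathology or by a ratio above 5 of peak ALT or AST elevation to alkaline phosphatase elevation, value counts indexed references.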
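Wherever Hepatotoxicity (granulomatous hepatitis) is given: value is a count of indexed literature references reporting granulomatous liver disease confirmed by histopathology.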
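Wherever Hepatotoxicity (malignant tumour) is given: malignant tumour confirmed by histopathology, value gives the count of indexed literature references reporting it.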
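Wherever Hepatotoxicity (severe hepatitis) is given: human clinical data: severe hepatitis, meaning potentially life-threatening liver failure or clinically observed cases, the value counts how many indexed literature references report it.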
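Wherever Hepatotoxicity (steatosis) is given: steatosis confirmed by histopathology, value is the count of indexed references.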

SMILES	Hepatotoxicity (association with vascular disease) [1]	Hepatotoxicity (steatosis) [2]	Hepatotoxicity (choleostasis) [3]	Hepatotoxicity (animal toxicity known) [4]	Hepatotoxicity (cirrhosis) [5]	Hepatotoxicity (cytolytic) [6]	Hepatotoxicity (granulomatous hepatitis) [7]	Hepatotoxicity (chronic liver disease) [8]	Hepatotoxicity (mechanism) [9]	Hepatotoxicity (time to onset) [10]	Hepatotoxicity (benign tumour) [11]	Hepatotoxicity (comment) [12]	Hepatotoxicity (malignant tumour) [13]	Hepatotoxicity (successful reintroduction) [14]	Hepatotoxicity (acute) [15] [%]	Hepatotoxicity (moderate) [16]	Hepatotoxicity (severe hepatitis) [17]	Hepatotoxicity (moderate) [18] [%]	Hepatotoxicity (acute) [19]	also measured
CC(=O)Nc1ccc(O)cc1 [ACETAMINOPHEN]	0	1	5	yes	5	98	1	7	Allergic, Toxic Metabolite	1 day - 12 years	0	I/ALCOOL/PHENYTOINE/PHENOBARBITAL/IFN/ZIDOVUDINE #CBP	0	yes						
CN1CCN(C2=Nc3cc(Cl)ccc3Nc3ccccc32)CC1 [CLOZAPINE]	0	0	4	A	0	8	0	0	Dose-dependant	3 days - 6 weeks	0	CHOLANGITE	0	yes	1	26	1	60		
O=c1ccc2ccccc2o1 [COUMARIN]	0	0	1	yes	0	11	0	0	Dose-dependant	5 days - 6 months	0		0	yes	4.3	8	3	8.7	16	
O=C1CN(/N=C/c2ccc(-c3ccc([N+](=O)[O-])cc3)o2)C(O)=N1 [DANTROLENE]	0	0	6	yes	0	10	0	1		7 days - 1 year	0	CHOLANGITE	0	yes	0.6	11	7	1.8	11	
NC(N)=Nc1nc(CSCCN/C=N/S(=O)(=O)c2ccc(Br)cc2)cs1 [EBROTIDINE]	0	0	0	yes	1	2	0	1		2 weeks - 6 months	0	AC_ANTI-ML	0	yes	0	0	1	0	2	
CN(C)CCCN1c2ccccc2CCc2ccccc21 [IMIPRAMINE]	0	0	13	yes	0	9	0	1	Allergic, Reactive metabolite	1 week - 1 year	0	RC/DESPRAMINE CHOLESTASE_PROLONGEE	0	yes						
COc1ccc2c(c1)c(CC(=O)O)c(C)n2C(=O)c1ccc(Cl)cc1 [INDOMETHACIN]	0	0	10	yes	0	8	0	0	Allergic, Reactive metabolite	3 days - 10 years	0		0	yes	1	7	5	25	17	
Cc1ncc([N+](=O)[O-])n1CCO [METRONIDAZOLE]	0	0	2	yes	0	8	0	0	Dose-dependant	1 day - 2.3 months	0		0	yes		4			10	Hepatotoxicity (acute) ([15]; Liver): 0%; Hepatotoxicity (severe hepatitis) ([17]; Liver): 1; Hepatotoxicity (moderate) ([18]; Liver): 25%
O=C1CN(/N=C/c2ccc([N+](=O)[O-])o2)C(=O)N1 [NITROFURANTOIN]	0	1		yes	7			37		2 days - 10 years	1	AC_ANTI-ML/-N RC/FURAZOLIDONE/NIFUROXIME CHOLANGITE	1	yes		2				Hepatotoxicity (choleostasis) ([3]; Liver): 27; Hepatotoxicity (acute) ([15]; Liver): 0%; Hepatotoxicity (cytolytic) ([6]; Liver): 9; Hepatotoxicity (granulomatous hepatitis) ([7]; Liver): 2; Hepatotoxicity (mechanism) ([9]; Liver): Allergic; Hepatotoxicity (severe hepatitis) ([17]; Liver): 8; Hepatotoxicity (moderate) ([18]; Liver): 0%
CNC(=C[N+](=O)[O-])NCCSCc1ccc(CN(C)C)o1 [RANITIDINE]	0	1	15	yes	0	12	1	1	Allergic, Dose-dependant, Toxic Metabolite	4 days - 3 months	0	AC_ANTI-ML/-N CHOLANGITE	0	yes	0	37	2	18.6		
CN(N=O)C(=O)N[C@@H](C=O)[C@@H](O)[C@H](O)[C@H](O)CO [STREPTOZOCIN]	0	0	0	yes	0	1	0	0		4 days - 6 weeks	0	CHOLANGITE/IAH	0	yes	35.3	9	2	67	3	
Nc1c2c(nc3ccccc13)CCCC2 [TACRINE]	0	1		yes	0			0		1 week - 1.7 years	0		0	yes		38			22	Hepatotoxicity (choleostasis) ([3]; Liver): 1; Hepatotoxicity (acute) ([15]; Liver): 13.4%; Hepatotoxicity (cytolytic) ([6]; Liver): 19; Hepatotoxicity (granulomatous hepatitis) ([7]; Liver): 4; Hepatotoxicity (mechanism) ([9]; Liver): Dose-dependant; Hepatotoxicity (severe hepatitis) ([17]; Liver): 2; Hepatotoxicity (moderate) ([18]; Liver): 54%
